The source of these data is patent US11306084B2, “Integrin antagonists” (Saint Louis University, priority 2016, dated 2022).

Where a name gives a salt, the structure may show the parent alone.

Test [1] has as its target T1, Recombinant human integrin ανβ5 (Homo sapiens, UniProt P06756+P18084).
T1 construct: purchased R&D Systems 2528-AV
The test is described as follows: Solid Phase Receptor Assay (SPRA) for ανβ5 function. The format is binding. Particulars: for IC50: plate-bound human vitronectin, read-out: αvβ5 SPRA IC50. How it is done: D. Solid Phase Receptor Assay (SPRA) for ανβ5 Function
Wells were washed 3 times with 150 μL TBS+ and then 150 μL of blocking buffer (TBS+ with 1% bovine serum albumin, Sigma A7906) was added. The plate was incubated for 1 hr at 37° C. and then washed 3× with TBS+ buffer. […] Compounds were diluted to 20 μM and then 1 μL was added to each well of the plate according to a standard template with each sample repeated in triplicate. After incubation for two hours at room temperature, the plate was washed 3× with 150 μL of TBS+ buffer. To each well, 50 μl of biotinylated anti-αν antibody (R&D Systems, BAF1219) at 0.5 μg/mL in TBS+/0.1% BSA at 0.5 μg/mL were added and the plate covered and incubated for 1 hr at room temperature. After washing the plate 3 with 150 μL of TBS+ buffer, 50 μL of streptavidin-conjugated horseradish peroxidase (R&D Systems, DY998) diluted in TBS+ blocking buffer were added to the wells and the plate incubated for 20 min at room temperature. The plate was washed 3× with TBS+ buffer followed by 50 μL of TMB substrate (Sigma T4444) added to each well in the dark and the plate incubated for 5 min at room temperature. 25 μL of 1.0 M phosphoric acid was added as a stop solution and the plates were read at 450 nm using a Spectramax plate reader.

The target of test [2] is T2, Recombinant human integrin ανβ6 (Homo sapiens, UniProt P06756+P18564).
T2 construct: purchased R&D Systems 3817-AV
T2 sequence (P06756 31-992 limits assumed): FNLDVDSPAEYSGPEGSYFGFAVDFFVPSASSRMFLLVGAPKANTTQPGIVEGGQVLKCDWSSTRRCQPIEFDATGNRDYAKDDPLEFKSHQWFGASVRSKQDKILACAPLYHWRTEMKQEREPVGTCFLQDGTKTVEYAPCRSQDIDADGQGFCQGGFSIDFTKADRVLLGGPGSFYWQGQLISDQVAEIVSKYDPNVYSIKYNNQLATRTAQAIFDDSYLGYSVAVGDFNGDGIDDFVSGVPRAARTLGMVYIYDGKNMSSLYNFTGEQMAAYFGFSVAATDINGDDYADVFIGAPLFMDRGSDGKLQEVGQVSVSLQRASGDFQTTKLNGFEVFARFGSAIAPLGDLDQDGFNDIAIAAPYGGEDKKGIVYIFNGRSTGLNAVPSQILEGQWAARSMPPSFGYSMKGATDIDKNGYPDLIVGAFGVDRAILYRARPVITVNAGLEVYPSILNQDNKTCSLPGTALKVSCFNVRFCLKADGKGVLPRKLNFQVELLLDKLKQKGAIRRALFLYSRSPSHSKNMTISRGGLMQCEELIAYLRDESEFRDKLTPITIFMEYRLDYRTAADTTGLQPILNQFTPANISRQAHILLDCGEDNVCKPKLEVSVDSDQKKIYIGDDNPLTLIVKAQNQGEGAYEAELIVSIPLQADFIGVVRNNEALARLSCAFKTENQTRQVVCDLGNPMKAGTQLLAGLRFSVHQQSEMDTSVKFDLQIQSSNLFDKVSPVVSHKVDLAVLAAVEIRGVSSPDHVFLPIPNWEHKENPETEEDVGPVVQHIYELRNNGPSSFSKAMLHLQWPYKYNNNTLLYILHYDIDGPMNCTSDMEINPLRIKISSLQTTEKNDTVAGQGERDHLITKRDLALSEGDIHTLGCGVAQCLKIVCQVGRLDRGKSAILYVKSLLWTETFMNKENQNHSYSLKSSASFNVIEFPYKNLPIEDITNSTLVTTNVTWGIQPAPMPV
T2 sequence (P18564 22-707 limits assumed): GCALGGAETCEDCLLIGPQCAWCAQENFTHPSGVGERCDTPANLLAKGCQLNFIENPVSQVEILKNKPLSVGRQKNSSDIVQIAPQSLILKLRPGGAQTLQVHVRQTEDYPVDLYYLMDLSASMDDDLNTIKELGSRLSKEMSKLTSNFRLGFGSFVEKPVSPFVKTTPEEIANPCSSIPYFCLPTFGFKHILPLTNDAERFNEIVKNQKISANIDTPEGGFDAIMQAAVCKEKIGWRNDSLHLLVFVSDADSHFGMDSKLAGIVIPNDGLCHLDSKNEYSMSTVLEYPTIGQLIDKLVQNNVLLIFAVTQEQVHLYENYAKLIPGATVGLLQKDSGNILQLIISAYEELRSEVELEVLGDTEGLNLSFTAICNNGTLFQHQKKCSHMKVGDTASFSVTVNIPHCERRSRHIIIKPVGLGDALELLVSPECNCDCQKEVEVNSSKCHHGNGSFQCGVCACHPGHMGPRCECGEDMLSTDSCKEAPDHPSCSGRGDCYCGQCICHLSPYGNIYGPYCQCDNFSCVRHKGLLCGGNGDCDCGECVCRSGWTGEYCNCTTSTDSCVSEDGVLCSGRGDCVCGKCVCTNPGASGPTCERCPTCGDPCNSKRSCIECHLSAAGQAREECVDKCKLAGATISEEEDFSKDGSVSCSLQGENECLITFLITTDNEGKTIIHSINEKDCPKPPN
The test is described as follows: Solid Phase Receptor Assay (SPRA) for ανβ6 function. Particulars: for IC50: plate-bound human LAP, read-out: αvβ6 SPRA IC50. It is filed as binding. How it is done:
E. Solid Phase Receptor Assay (SPRA) for ανβ6 Function
Wells were washed 3 times with 150 μL TBS+, and then 150 μL of blocking buffer (TBS+ with 1% bovine serum albumin, Sigma A7906) was added. The plate was incubated for 1 hr at 37° C., and then washed 3× with TBS+ buffer. […] Compounds were diluted to 20 μM and then 1 μL was added to each well of the plate according to a standard template with each sample repeated in triplicate. After incubation for two hours at room temperature, the plate was washed 3× with 150 μL of TBS+ buffer. To each well, 50 μL of biotinylated anti-αν antibody (R&D Systems, BAF1219) at 0.5 μg/mL in TBS+/0.1% BSA were added and the plate was covered and incubated for 1 hr at room temperature. After washing the plate 3× with 150 μL of TBS+ buffer, 50 μL of streptavidin-conjugated horseradish peroxidase (R&D Systems, DY998) diluted in TBS+ blocking buffer were added to the wells and the plate incubated for 20 min at room temperature. The plate was washed 3× with TBS+ buffer followed by 50 μL of TMB substrate (Sigma T4444) added to each well in the dark and the plate incubated for 10 min at room temperature. 25 μL of 1.0 M phosphoric acid was added as a stop solution and the plates were read at 450 nm using a Spectramax plate reader.

T1 sequence (P06756 31-992 limits assumed): as the sequence (P06756 31-992 limits assumed) above
T1 sequence (P18084 24-719 limits assumed): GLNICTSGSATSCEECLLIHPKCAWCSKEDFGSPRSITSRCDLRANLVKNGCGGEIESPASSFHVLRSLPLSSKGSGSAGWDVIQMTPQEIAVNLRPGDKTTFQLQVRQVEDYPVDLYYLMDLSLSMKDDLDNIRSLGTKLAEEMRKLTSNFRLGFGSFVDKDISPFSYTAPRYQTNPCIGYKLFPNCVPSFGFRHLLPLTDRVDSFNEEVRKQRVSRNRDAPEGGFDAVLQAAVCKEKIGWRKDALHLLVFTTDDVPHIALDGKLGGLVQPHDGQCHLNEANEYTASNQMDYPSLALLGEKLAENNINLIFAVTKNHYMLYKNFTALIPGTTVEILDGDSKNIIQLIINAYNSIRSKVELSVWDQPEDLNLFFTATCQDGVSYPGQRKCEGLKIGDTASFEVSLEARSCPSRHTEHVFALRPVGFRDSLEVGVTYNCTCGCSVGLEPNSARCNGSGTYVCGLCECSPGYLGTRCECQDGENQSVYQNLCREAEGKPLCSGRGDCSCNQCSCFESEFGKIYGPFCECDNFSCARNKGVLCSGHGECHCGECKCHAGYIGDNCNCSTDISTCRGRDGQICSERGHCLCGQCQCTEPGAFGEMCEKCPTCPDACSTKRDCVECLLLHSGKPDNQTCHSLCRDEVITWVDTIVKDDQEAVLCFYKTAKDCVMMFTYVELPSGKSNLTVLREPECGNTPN

Turning to `Cn1nc(CC(CC(=O)O)c2cc(F)cc(C(C)(C)C(F)(F)F)c2)cc1OCCc1ccc2c(n1)NCCC2` (stereo not shown) [Example 24, 3-(3-fluoro-5-(1,1,1-trifluoro-2-methylpropan-2-yl)phenyl)-4-(1-methyl-5-(2-(5,6,7,8-tetrahydro-1,8-naphthyridin-2-yl)ethoxy)-1H-pyrazol-3-yl)butanoic Acid], the figures for the IC50 in test [1] and in test [2] were 0.2 nM and 110 nM, respectively.

Take `Cn1nc(CC(CC(=O)O)c2cc(C(F)(F)F)cc(C(C)(C)C(F)(F)F)c2)cc1OCCc1ccc2c(n1)NCCC2` (stereo not shown) [Example 25, 4-[1-methyl-5-[2-(5,6,7,8-tetrahydro-1,8-naphthyridin-2-yl)ethoxy]pyrazol-3-yl]-3-[3-(2,2,2-trifluoro-1,1-dimethylethyl)-5-(trifluoromethyl)phenyl]butanoic Acid]: the IC50 in test [1] worked out at 2.9 nM; in test [2], 25 nM.

For the compound `Cn1nc(CC(CC(=O)O)c2cc(Br)cc(C(C)(C)C(F)(F)F)c2)cc1OCCc1ccc2c(n1)NCCC2` (stereo not shown) [Example 26, 3-[3-bromo-5-(2,2,2-trifluoro-1,1-dimethyl-ethyl)phenyl]-4-[1-methyl-5-[2-(5,6,7,8-tetrahydro-1,8-naphthyridin-2-yl)ethoxy]pyrazol-3-yl]butanoic Acid], the IC50 in test [1] stood at 1.8 nM; in test [2], 45 nM.

For the compound `Cn1nc(CC(CC(=O)O)c2cc(Cl)cc(C(C)(C)C(F)(F)F)c2)cc1OCCc1ccc2c(n1)NCCC2` (stereo not shown) [Example 27, 3-(3-chloro-5-(1,1,1-trifluoro-2-methylpropan-2-yl)phenyl)-4-(1-methyl-5-(2-(5,6,7,8-tetrahydro-1,8-naphthyridin-2-yl)ethoxy)-1H-pyrazol-3-yl)butanoic Acid], the IC50 in test [1] is 0.5 nM; in test [2], 47 nM.

As for `Cn1nc(CC(CC(=O)O)c2cc(C#N)cc(C(C)(C)C(F)(F)F)c2)cc1OCCc1ccc2c(n1)NCCC2` (stereo not shown) [Example 28, 3-[3-cyano-5-(2,2,2-trifluoro-1,1-dimethyl-ethyl)phenyl]-4-[1-methyl-5-[2-(5,6,7,8-tetrahydro-1,8-naphthyridin-2-yl)ethoxyl]pyrazol-3-yl]butanoic Acid Trifluoroacetate], the half-maximal inhibitory concentration (IC50) in test [1] amounted to 0.8 nM; in test [2], 15 nM.

For the compound `COCC1(c2cc(Cl)cc(C(CC(=O)O)Cc3cc(OCCc4ccc5c(n4)NCCC5)n(C)n3)c2)CCOCC1` (stereo not shown) [Example 29, 3-(3-chloro-5-(4-(methoxymethyl)tetrahydro-2H-pyran-4-yl)phenyl)-4-(1-methyl-5-(2-(5,6,7,8-tetrahydro-1,8-naphthyridin-2-yl)ethoxy)-1H-pyrazol-3-yl)butanoic Acid], the IC50 in test [1] was found to be 0.5 nM; in test [2] it was 52 nM.

Regarding `COCC1(c2cc(F)cc(C(CC(=O)O)Cc3cc(OCCc4ccc5c(n4)NCCC5)n(C)n3)c2)CCOCC1` (stereo not shown) [Example 30, 3-(3-fluoro-5-(4-(methoxymethyl)tetrahydro-2H-pyran-4-yl)phenyl)-4-(1-methyl-5-(2-(5,6,7,8-tetrahydro-1,8-naphthyridin-2-yl)ethoxy)-1H-pyrazol-3-yl)butanoic Acid], the results for the IC50 in test [1] and in test [2] were 0.5 nM and 180 nM, respectively.

In the case of `COCC1(c2cc(C(CC(=O)O)Cc3cc(OCCc4ccc5c(n4)NCCC5)n(C)n3)cc(C(F)(F)F)c2)CCOCC1` (stereo not shown) [Example 31, 3-(3-(4-(methoxymethyl)tetrahydro-2H-pyran-4-yl)-5-(trifluoromethyl)phenyl)-4-(1-methyl-5-(2-(5,6,7,8-tetrahydro-1,8-naphthyridin-2-yl)ethoxy)-1H-pyrazol-3-yl)butanoic Acid], the IC50 is 3.3 nM in test [1] and 63 nM in test [2].

Take `COc1ccc(C(C)(C)C)cc1C(CC(=O)O)Cc1cc(OCCc2ccc3c(n2)NCCC3)n(C)n1` (stereo not shown) [Example 32, 3-(5-(tert-butyl)-2-methoxyphenyl)-4-(1-methyl-5-(2-(5,6,7,8-tetrahydro-1,8-naphthyridin-2-yl)ethoxy)-1H-pyrazol-3-yl)butanoic Acid]: in test [1], the “inhibitory activity at ανβ5 (in words)” value is listed as “low activity” and the IC50 came to 280 nM. In test [2], the “inhibitory activity at ανβ6 (in words)” value is recorded as “low activity” and the IC50 was determined as 230 nM.

Consider `COc1c(C(CC(=O)O)Cc2cc(OCCc3ccc4c(n3)NCCC4)n(C)n2)cccc1C(C)(C)C` (stereo not shown) [Example 33, 3-(3-(tert-butyl)-2-methoxyphenyl)-4-(1-methyl-5-(2-(5,6,7,8-tetrahydro-1,8-naphthyridin-2-yl)ethoxy)-1H-pyrazol-3-yl)butanoic Acid], for which the IC50 in test [1] is 3.1 nM; in test [2], 2400 nM.

Regarding `COc1cc(C(C)(C)C)ccc1C(CC(=O)O)Cc1cc(OCCc2ccc3c(n2)NCCC3)n(C)n1` (stereo not shown) [Example 34, 3-(4-(tert-butyl)-2-methoxyphenyl)-4-(1-methyl-5-(2-(5,6,7,8-tetrahydro-1,8-naphthyridin-2-yl)ethoxy)-1H-pyrazol-3-yl)butanoic Acid], the IC50 in test [1] turned out to be 2.3 nM; in test [2], 130 nM.

As for `Cn1nc(CC(CC(=O)O)c2cc(OC(F)(F)F)cc(C(C)(C)C)c2)cc1OCCc1ccc2c(n1)NCCC2` (stereo not shown) [Example 36, 3-[3-tert-butyl-5-(trifluoromethoxy)phenyl]-4-[1-methyl-5-[2-(5,6,7,8-tetrahydro-1,8-naphthyridin-2-yl)ethoxy]pyrazol-3-yl]butanoic Acid], the results for the IC50 in test [1] and in test [2] were 1.1 nM and 120 nM, respectively.

For the compound `Cn1nc(CC(CC(=O)O)c2cc(C(C)(C)C)cc(C(F)(F)F)c2)cc1OCCc1ccc2c(n1)NCCC2` (stereo not shown) [Example 37, 3-[3-tert-butyl-5-(trifluoromethyl)phenyl]-4-[1-methyl-5-[2-(5,6,7,8-tetrahydro-1,8-naphthyridin-2-yl)ethoxyl]pyrazol-3-yl]butanoic Acid], the IC50 in test [1] was 6.2 nM; in test [2], 140 nM.

`Cn1nc(CC(CC(=O)O)c2cc(F)cc(C(C)(C)C)c2)cc1OCCc1ccc2c(n1)NCCC2` (stereo not shown) [Example 38, 3-(3-(tert-butyl)-5-fluorophenyl)-4-(1-methyl-5-(2-(5,6,7,8-tetrahydro-1,8-naphthyridin-2-yl)ethoxy)-1H-pyrazol-3-yl)butanoic Acid]: the IC50 in test [1] is 0.3 nM; in test [2], 110 nM.

Regarding `COc1ccc(C(C)C)cc1C(CC(=O)O)Cc1cc(OCCc2ccc3c(n2)NCCC3)n(C)n1` (stereo not shown) [Example 39, 3-(5-isopropyl-2-methoxyphenyl)-4-(1-methyl-5-(2-(5,6,7,8-tetrahydro-1,8-naphthyridin-2-yl)ethoxy)-1H-pyrazol-3-yl)butanoic Acid Trifluoroacetate], the concentration for half-maximal inhibition (IC50) is 96 nM in test [1] and 230 nM in test [2].

Consider `CC(C)c1cc(Br)cc(C(CC(=O)O)Cc2cc(OCCc3ccc4c(n3)NCCC4)n(C)n2)c1` (stereo not shown) [Example 40, 3-(3-bromo-5-isopropyl-phenyl)-4-[1-methyl-5-[2-(5,6,7,8-tetrahydro-1,8-naphthyridin-2-yl)ethoxyl]pyrazol-3-yl]butanoic acid trifluoroacetate], for which the IC50 in test [1] was found to be 1.1 nM; in test [2], 79 nM.

`CC(C)(C)c1cc(Br)cc(C(CC(=O)O)Cc2cc(OCCc3ccc4c(n3)NCCC4)n(CC(F)(F)F)n2)c1` (stereo not shown) [Example 41, 3-(3-bromo-5-tert-butyl-phenyl)-4-[5-[2-(5,6,7,8-tetrahydro-1,8-naphthyridin-2-yl)ethoxy]-1-(2,2,2-trifluoroethyl)pyrazol-3-yl]butanoic Acid Trifluoroacetate]: the 50% inhibitory concentration (IC50) is 2.2 nM in test [1] and 85 nM in test [2].

Regarding `Cn1nc(CC(CC(=O)O)c2cc(C(C)(C)C)ccc2O)cc1OCCc1ccc2c(n1)NCCC2` (stereo not shown) [Example 42, 3-(5-tert-butyl-2-hydroxy-phenyl)-4-[1-methyl-5-[2-(5,6,7,8-tetrahydro-1,8-naphthyridin-2-yl)ethoxyl]pyrazol-3-yl]butanoic Acid Sodium Salt], the IC50 in test [1] worked out at 6.6 nM; in test [2], 20 nM.

`Cn1nc(CC(CC(=O)O)c2cc(C(C)(C)C)ccc2Cl)cc1OCCc1ccc2c(n1)NCCC2` (stereo not shown) [Example 43, 3-(5-(tert-butyl)-2-chlorophenyl)-4-(1-methyl-5-(2-(5,6,7,8-tetrahydro-1,8-naphthyridin-2-yl)ethoxy)-1H-pyrazol-3-yl)butanoic Acid Trifluoroacetate]: the figures for the IC50 in test [1] and in test [2] were 16.6 nM and 800 nM, respectively.

One may read the IC50 as the concentration that gives 50% inhibition.
